Data reported in patent publication US20230085307A1, “PYRIDAZINONE COMPOUND AND HERBICIDE” (NISSAN CHEMICAL CORPORATION, priority 2019, published 2023).

Experiments:
barnyard grass [1] = assay: Test Example 3: herbicidal effect by foliage application, Wagner pot (Table 18, symbol H); type: in vivo, barnyard grass (Echinochloa crus-galli); conditions: 320 g/ha
How it was run: (§1)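 Plants were sown in alluvial soil held under 0.1–0.5 cm standing water and grown 14 days in a greenhouse at 25–30 °C. An emulsifiable formulation, water-diluted to the set dose, was then sprayed onto the foliage, and effects were scored three weeks later using previously defined criteria.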

Chinese sprangletop = assay: Test Example 3: herbicidal effect by foliage application, Wagner pot (Table 18, symbol D); type: in vivo, chinese sprangletop (Leptochloa chinensis); conditions: 320 g/ha
How it was run: as §1

rice flat sedge = assay: Test Example 3: herbicidal effect by foliage application, Wagner pot (Table 18, symbol E); type: in vivo, rice flat sedge (Cyperus iria); conditions: 320 g/ha
How it was run: as §1

southern crabgrass [2] = assay: Test Example 4: herbicidal effect by soil treatment (Table 19, symbol F); type: in vivo, southern crabgrass (Digitaria ciliaris); conditions: amount of applied herbicide 320 g/ha
How it was run: (§2)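 Seeds were sown in sterilized diluvial soil and covered with about 1.5 cm of soil. An emulsion formulation diluted with water to a predetermined herbicide amount was sprayed evenly onto the soil surface. Plants grew in a greenhouse at 25° C. to 30° C., and the effect was scored three weeks after application using criteria from an earlier test.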

green foxtail [3] = assay: Test Example 4: herbicidal effect by soil treatment (Table 19, symbol G); type: in vivo, green foxtail (Setaria viridis); conditions: amount of applied herbicide 320 g/ha
How it was run: as §2

barnyard grass [4] = assay: Test Example 4: herbicidal effect by soil treatment (Table 19, symbol H); type: in vivo, barnyard grass (Echinochloa crus-galli); conditions: amount of applied herbicide 320 g/ha
How it was run: as §2

wild oat [5] = assay: Test Example 4: herbicidal effect by soil treatment (Table 19, symbol I); type: in vivo, wild oat (Avena fatua); conditions: amount of applied herbicide 320 g/ha
How it was run: as §2

blackgrass [6] = assay: Test Example 4: herbicidal effect by soil treatment (Table 19, symbol J); type: in vivo, blackgrass (Alopecurus myosuroides); conditions: amount of applied herbicide 320 g/ha
How it was run: as §2

Italian ryegrass [7] = assay: Test Example 4: herbicidal effect by soil treatment (Table 19, symbol K); type: in vivo, Italian ryegrass (Lolium multiflorum); conditions: amount of applied herbicide 320 g/ha
How it was run: as §2

windgrass [8] = assay: Test Example 4: herbicidal effect by soil treatment (Table 19, symbol L); type: in vivo, windgrass (Apera spica-venti); conditions: amount of applied herbicide 320 g/ha
How it was run: as §2

velvetleaf [9] = assay: Test Example 4: herbicidal effect by soil treatment (Table 19, symbol M); type: in vivo, velvetleaf (Abutilon theophrasti); conditions: amount of applied herbicide 320 g/ha
How it was run: as §2

redroot pigweed [10] = assay: Test Example 4: herbicidal effect by soil treatment (Table 19, symbol N); type: in vivo, redroot pigweed (Amaranthus retroflexus); conditions: amount of applied herbicide 320 g/ha
How it was run: as §2

lambsquarters [11] = assay: Test Example 4: herbicidal effect by soil treatment (Table 19, symbol O); type: in vivo, lambsquarters (Chenopodium album); conditions: amount of applied herbicide 320 g/ha
How it was run: as §2

chickweed [12] = assay: Test Example 4: herbicidal effect by soil treatment (Table 19, symbol P); type: in vivo, common chickweed (Stellaria media); conditions: amount of applied herbicide 320 g/ha
How it was run: as §2

false cleavers [13] = assay: Test Example 4: herbicidal effect by soil treatment (Table 19, symbol Q); type: in vivo, false cleavers (Galium spurium); conditions: amount of applied herbicide 320 g/ha
How it was run: as §2

persian speedwell [14] = assay: Test Example 4: herbicidal effect by soil treatment (Table 19, symbol R); type: in vivo, Persian speedwell (Veronica persica); conditions: amount of applied herbicide 320 g/ha
How it was run: as §2

southern crabgrass [15] = assay: Test Example 5: herbicidal effect by foliage application, plastic box (Table 20, symbol F); type: in vivo, southern crabgrass (Digitaria ciliaris); conditions: foliage application, 320 g/ha, three weeks after application
How it was run: (§3)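 Plants sown in sterilized diluvial soil and grown 14 days in a greenhouse at 25° C to 30° C, then sprayed on the foliage with the compound's emulsion diluted in water to a predetermined herbicide amount. Injury to weeds and crops scored three weeks after application on a visual rating scale.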

green foxtail [16] = assay: Test Example 5: herbicidal effect by foliage application, plastic box (Table 20, symbol G); type: in vivo, green foxtail (Setaria viridis); conditions: foliage application, 320 g/ha, three weeks after application
How it was run: as §3

barnyard grass [17] = assay: Test Example 5: herbicidal effect by foliage application, plastic box (Table 20, symbol H); type: in vivo, barnyard grass (Echinochloa crus-galli); conditions: foliage application, 320 g/ha, three weeks after application
How it was run: as §3

wild oat [18] = assay: Test Example 5: herbicidal effect by foliage application, plastic box (Table 20, symbol I); type: in vivo, wild oat (Avena fatua); conditions: foliage application, 320 g/ha, three weeks after application
How it was run: as §3

blackgrass [19] = assay: Test Example 5: herbicidal effect by foliage application, plastic box (Table 20, symbol J); type: in vivo, blackgrass (Alopecurus myosuroides); conditions: foliage application, 320 g/ha, three weeks after application
How it was run: as §3

Italian ryegrass [20] = assay: Test Example 5: herbicidal effect by foliage application, plastic box (Table 20, symbol K); type: in vivo, Italian ryegrass (Lolium multiflorum); conditions: foliage application, 320 g/ha, three weeks after application
How it was run: as §3

windgrass [21] = assay: Test Example 5: herbicidal effect by foliage application, plastic box (Table 20, symbol L); type: in vivo, windgrass (Apera spica-venti); conditions: foliage application, 320 g/ha, three weeks after application
How it was run: as §3

velvetleaf [22] = assay: Test Example 5: herbicidal effect by foliage application, plastic box (Table 20, symbol M); type: in vivo, velvetleaf (Abutilon theophrasti); conditions: foliage application, 320 g/ha, three weeks after application
How it was run: as §3

redroot pigweed [23] = assay: Test Example 5: herbicidal effect by foliage application, plastic box (Table 20, symbol N); type: in vivo, redroot pigweed (Amaranthus retroflexus); conditions: foliage application, 320 g/ha, three weeks after application
How it was run: as §3

lambsquarters [24] = assay: Test Example 5: herbicidal effect by foliage application, plastic box (Table 20, symbol O); type: in vivo, lambsquarters (Chenopodium album); conditions: foliage application, 320 g/ha, three weeks after application
How it was run: as §3

chickweed [25] = assay: Test Example 5: herbicidal effect by foliage application, plastic box (Table 20, symbol P); type: in vivo, common chickweed (Stellaria media); conditions: foliage application, 320 g/ha, three weeks after application
How it was run: as §3

false cleavers [26] = assay: Test Example 5: herbicidal effect by foliage application, plastic box (Table 20, symbol Q); type: in vivo, false cleavers (Galium spurium); conditions: foliage application, 320 g/ha, three weeks after application
How it was run: as §3

persian speedwell [27] = assay: Test Example 5: herbicidal effect by foliage application, plastic box (Table 20, symbol R); type: in vivo, Persian speedwell (Veronica persica); conditions: foliage application, 320 g/ha, three weeks after application
How it was run: as §3

Row | Structure (SMILES) | herbicidal effect on H (barnyard grass), rating 0-5 (barnyard grass [1]) | herbicidal effect on D (Chinese sprangletop), rating 0-5 (Chinese sprangletop) | herbicidal effect on E (rice flat sedge), rating 0-5 (rice flat sedge) | herbicidal effect rating, F: southern crabgrass (southern crabgrass [2]) | herbicidal effect rating, G: green foxtail (green foxtail [3]) | herbicidal effect rating, H: barnyard grass (barnyard grass [4]) | herbicidal effect rating, I: wild oat (wild oat [5]) | herbicidal effect rating, J: blackgrass (blackgrass [6]) | herbicidal effect rating, K: Italian ryegrass (Italian ryegrass [7]) | herbicidal effect rating, L: windgrass (windgrass [8]) | herbicidal effect rating, M: velvetleaf (velvetleaf [9]) | herbicidal effect rating, N: redroot pigweed (redroot pigweed [10]) | herbicidal effect rating, O: lambsquarters (lambsquarters [11]) | herbicidal effect rating, P: chickweed (chickweed [12]) | herbicidal effect rating, Q: false cleavers (false cleavers [13]) | herbicidal effect rating, R: persian speedwell (persian speedwell [14]) | herbicidal effect grade, F: southern crabgrass (southern crabgrass [15]) | herbicidal effect grade, G: green foxtail (green foxtail [16]) | herbicidal effect grade, H: barnyard grass (barnyard grass [17]) | herbicidal effect grade, I: wild oat (wild oat [18]) | other results
1 | COc1cc(Cl)ccc1-c1sc2ccccc2c1-c1c(O)c(C)nn(C)c1=O [1-060] | 4 (Herbicidal rate of 70% or more and less than 90%) | 3 (Herbicidal rate of 40% or more and less than 70%) | 4 (Herbicidal rate of 70% or more and less than 90%) | 0 (Herbicidal rate of 5% or less (almost no effect)) | 0 (Herbicidal rate of 5% or less (almost no effect)) | 0 (Herbicidal rate of 5% or less (almost no effect)) | 0 (Herbicidal rate of 5% or less (almost no effect)) | 0 (Herbicidal rate of 5% or less (almost no effect)) | 0 (Herbicidal rate of 5% or less (almost no effect)) | 1 (Herbicidal rate of 5% or more and less than 20%) | 0 (Herbicidal rate of 5% or less (almost no effect)) | 0 (Herbicidal rate of 5% or less (almost no effect)) | 0 (Herbicidal rate of 5% or less (almost no effect)) | 4 (Herbicidal rate of 70% or more and less than 90%) | 3 (Herbicidal rate of 40% or more and less than 70%) | 5 (Herbicidal rate of 90% or more (almost completely withered)) | 3 (Herbicidal rate of 40% or more and less than 70%) | 3 (Herbicidal rate of 40% or more and less than 70%) | 3 (Herbicidal rate of 40% or more and less than 70%) | 3 (Herbicidal rate of 40% or more and less than 70%) | herbicidal effect grade, J: blackgrass (blackgrass [19]): 3 (Herbicidal rate of 40% or more and less than 70%); herbicidal effect grade, K: Italian ryegrass (Italian ryegrass [20]): 3 (Herbicidal rate of 40% or more and less than 70%); herbicidal effect grade, L: windgrass (windgrass [21]): 5 (Herbicidal rate of 90% or more (almost completely withered)); herbicidal effect grade, M: velvetleaf (velvetleaf [22]): 3 (Herbicidal rate of 40% or more and less than 70%); herbicidal effect grade, N: redroot pigweed (redroot pigweed [23]): 3 (Herbicidal rate of 40% or more and less than 70%); herbicidal effect grade, O: lambsquarters (lambsquarters [24]): 5 (Herbicidal rate of 90% or more (almost completely withered)); herbicidal effect grade, P: chickweed (chickweed [25]): 5 (Herbicidal rate of 90% or more (almost completely withered)); herbicidal effect grade, Q: false cleavers (false cleavers [26]): 5 (Herbicidal rate of 90% or more (almost completely withered)); herbicidal effect grade, R: persian speedwell (persian speedwell [27]): 5 (Herbicidal rate of 90% or more (almost completely withered))
2 | CCCC(=O)Oc1c(C)nn(C)c(=O)c1-c1c(-c2cc(C)c(OC)c(C)c2)sc2ccccc12 [1-075] | 3 (Herbicidal rate of 40% or more and less than 70%) | 0 (Herbicidal rate of 5% or less (almost no effect)) | 5 (Herbicidal rate of 90% or more (almost completely withered)) | 0 (Herbicidal rate of 5% or less (almost no effect)) | 0 (Herbicidal rate of 5% or less (almost no effect)) | 1 (Herbicidal rate of 5% or more and less than 20%) | 0 (Herbicidal rate of 5% or less (almost no effect)) | 0 (Herbicidal rate of 5% or less (almost no effect)) | 0 (Herbicidal rate of 5% or less (almost no effect)) | 0 (Herbicidal rate of 5% or less (almost no effect)) | 0 (Herbicidal rate of 5% or less (almost no effect)) | 0 (Herbicidal rate of 5% or less (almost no effect)) | 0 (Herbicidal rate of 5% or less (almost no effect)) | 0 (Herbicidal rate of 5% or less (almost no effect)) | 0 (Herbicidal rate of 5% or less (almost no effect)) | 3 (Herbicidal rate of 40% or more and less than 70%) | 0 (Herbicidal rate of 5% or less (almost no effect)) | 0 (Herbicidal rate of 5% or less (almost no effect)) | 0 (Herbicidal rate of 5% or less (almost no effect)) | 0 (Herbicidal rate of 5% or less (almost no effect)) | herbicidal effect grade, J: blackgrass (blackgrass [19]): 0 (Herbicidal rate of 5% or less (almost no effect)); herbicidal effect grade, K: Italian ryegrass (Italian ryegrass [20]): 3 (Herbicidal rate of 40% or more and less than 70%); herbicidal effect grade, L: windgrass (windgrass [21]): 0 (Herbicidal rate of 5% or less (almost no effect)); herbicidal effect grade, M: velvetleaf (velvetleaf [22]): 0 (Herbicidal rate of 5% or less (almost no effect)); herbicidal effect grade, N: redroot pigweed (redroot pigweed [23]): 3 (Herbicidal rate of 40% or more and less than 70%); herbicidal effect grade, O: lambsquarters (lambsquarters [24]): 0 (Herbicidal rate of 5% or less (almost no effect)); herbicidal effect grade, P: chickweed (chickweed [25]): 0 (Herbicidal rate of 5% or less (almost no effect)); herbicidal effect grade, Q: false cleavers (false cleavers [26]): 0 (Herbicidal rate of 5% or less (almost no effect)); herbicidal effect grade, R: persian speedwell (persian speedwell [27]): 5 (Herbicidal rate of 90% or more (almost completely withered))
